Experimental data published in article PMC5655044, “Reducing Antibacterial Development Risk for GSK1322322 by Exploring Potential Human Dose Regimens in Nonclinical Efficacy Studies Using Immunocompetent Rats” (Antimicrobial Agents and Chemotherapy, 2017).
≈ marks a conversion by molar mass, not a printed value. Where “and” joins values, the source holds several entries; their conditions need not be identical. Equal values may be shown once. Read-outs that look alike come from different tables or passages of the source.

Experiments:
[1] = tested on: S. aureus; experiment: MIC by CLSI broth microdilution, S. aureus isolates; assay type: cell-based, Staphylococcus aureus; design: key to Susceptibility category (superscript to MIC): R, resistant; S, susceptible; NS, nonsusceptible (resistance not defined); settings: for MIC: Staphylococcus aureus
Description: (§1) The strains chosen for these studies were clinical isolates from the GSK collection. They were selected on the basis of their desired susceptibility to GSK1322322, resistance phenotype, proven ability to produce robust infections in the rat infection models used in the present study, and previous validation in the models using positive- and negative-control antimicrobials (data on file). MICs were determined using the Clinical and Laboratory Standards Institute-recommended standards for broth microdilution ([24]) and are shown in Table 2. The MIC assay was repeated multiple times for each isolate, and results were consistent (within an accepted variation of ±1 dilution) across assays.

[2] = tested on: S. pneumoniae; experiment: MIC by CLSI broth microdilution, S. pneumoniae isolates; assay type: cell-based, Streptococcus pneumoniae; design: key to Susceptibility category (superscript to MIC): R, resistant; S, susceptible; NS, nonsusceptible (resistance not defined); settings: for MIC: Streptococcus pneumoniae
Description: as §1

[3] = tested on: H. influenzae; experiment: Rat model of H. influenzae pneumonia with recreated human exposure profiles; assay type: in vivo; settings: for Log10 reductions versus the levels at the baseline: 96 h
Description: (§2) The respiratory tract infection model was performed as previously described by Hoover et al. with slight modifications ([25]). Briefly, rats were anesthetized with a cocktail containing ketamine hydrochloride (Ketaset; 40 mg/kg) and xylazine (Rompun; 5 mg/kg) via intramuscular injection of 150 μl. The infection was induced by instilling 200 μl of the bacterial suspension in cooled, molten nutrient agar directly into the left lung via nonsurgical intratracheal intubation. As described in detail by Hoover et al., the use of agar for the inoculum boosts the ability of these organisms to establish infection in immunocompetent animals ([25]). The final inoculum ranged from 5.7 to 6.2 log10 CFU/rat for S. pneumoniae and 6.2 to 7.5 log10 CFU/rat for H. influenzae.
(§3) Solutions were freshly prepared each day.
(§4) One set of rats was euthanized at 1 h postinfection to establish the baseline bacterial burden at the time that dosing was initiated. All remaining animals were euthanized at 96 h postinfection. Euthanasia was achieved by carbon dioxide overdose, and infected tissues were excised aseptically and homogenized in 1 ml PBS using a laboratory blender (Stomacher 80; Seward Ltd., Worthing, West Sussex, UK). The lungs were removed whole and blotted to remove excess blood prior to processing. Abscesses were excised intact by removing all surrounding skin and tissue to ensure collection of the entire infected area along with the complete abscess itself. For enumeration of viable bacterial numbers, 10-fold serial dilutions were prepared in PBS and triplicate samples of 20 μl each were inoculated onto Trypticase soy agar supplemented with 5% sheep's blood (S. pneumoniae and S. aureus) or chocolate agar (H. influenzae) by a modified Miles-Misra technique ([27], [28]), using a Hamilton Microlab AT 2 Plus system. The colonies were counted following overnight incubation at 37°C, and the limit of detection was ≤1.7 log10 CFU/tissue.
(§5) The outcome measure for efficacy was the number of bacteria isolated from the infected tissues (number of log10 CFU per lungs or number of log10 CFU per abscess) at the conclusion of the study. Results are presented either as group means or as the change in the number of CFU from that at the baseline with associated standard errors of the means (SEM) for the difference. Statistical analysis was performed using the Student t test with a significance level of 0.05.

[4] = tested on: S. aureus; experiment: Rat model of S. aureus abscess with recreated human exposure profiles; assay type: in vivo; settings: recreated AZM 1,000/500-mg profile, all three (macrolide-resistant) S. aureus isolates
Description: Rats were also anesthetized as described above for establishment of the abscess infection model. A subcutaneous groin abscess was created by injecting 1 ml of the bacterial suspension in semisolid nutrient agar subcutaneously into the loose skin of the right groin area. The final inoculum for the S. aureus strains utilized ranged from 6.4 to 7.2 log10 CFU/rat.
as §3
as §4, with “For enumeration of viable bacterial numbers, 10-fold serial dilutions were prepared in PBS and triplicate samples of 20 μl each were inoculated onto Trypticase soy agar supplemented with 5% sheep's blood (S. pneumoniae and S. aureus) or chocolate agar (H. influenzae) by a modified Miles-Misra technique ([27], [28]), using a Hamilton Microlab AT 2 Plus system.” left out, “CFU/tissue. […]” for “CFU/tissue.”

[5] = cited from earlier work; for AUC0–t Human / Cmax Human: estimated from published oral PK data; for AUC from 0 to 12 h postdosing: human
[6] = tested on: S. pneumoniae; experiment: Rat model of S. pneumoniae pneumonia with recreated human exposure profiles; assay type: in vivo; settings: for Reduction in bacterial burden compared with controls at baseline: LVX- and AZM-resistant S. pneumoniae isolate, recreated human profiles (LVX 500 mg, AZM 1,000/500 mg once daily)
Description: as §2, §3, §4, §5

[7] = tested on: H. influenzae; experiment: MIC by CLSI broth microdilution, H. influenzae isolates; assay type: cell-based, Haemophilus influenzae; design: key to Susceptibility category (superscript to MIC): R, resistant; S, susceptible; NS, nonsusceptible (resistance not defined); settings: for MIC: Haemophilus influenzae
Description: as §1

[8] = Blood versus plasma concentrations, human; assay type: in vitro ADME; settings: human (data on file)
[9] = Blood versus plasma concentrations, rat; assay type: in vitro ADME; settings: rat (data on file)
[10] = design: method as in PMID 24189245; settings: healthy volunteers; cited from earlier work
[11] = Epithelial lining fluid penetration in infected rats; assay type: in vivo; settings: rat, epithelial lining fluid (total drug) / plasma (free drug); infected rats (data on file); read-out: Ratio of the total drug epithelial lining fluid AUC to the free drug plasma AUC
[12] = susceptible S. pneumoniae strain, recreated human profiles, bacterial numbers reduced to below or close to the limit of detection

Susceptibility category (superscript to MIC) ([1]; S. aureus PVL-2)	Susceptibility category (superscript to MIC) ([1]; S. aureus X32601)	MIC ([1]; S. aureus PVL-2) [µg/mL]	MIC ([1]; S. aureus X32601) [µg/mL]	Structure (SMILES)	Susceptibility category (superscript to MIC) ([1]; S. aureus A-24)	MIC ([1]; S. aureus A-24) [µg/mL]	Susceptibility category (superscript to MIC) ([2]; S. pneumoniae ERY2)	Susceptibility category (superscript to MIC) ([2]; S. pneumoniae L11259)	Susceptibility category (superscript to MIC) ([2]; S. pneumoniae TPS3)	MIC ([2]; S. pneumoniae ERY2) [µg/mL]	MIC ([2]; S. pneumoniae L11259) [µg/mL]	MIC ([2]; S. pneumoniae TPS3) [µg/mL]	Reduction in bacterial burden compared with controls at baseline ([6]; 96 h)	Effect on bacterial burden [6, 12]	Susceptibility category (superscript to MIC) ([7]; H. influenzae 511343)	Susceptibility category (superscript to MIC) ([7]; H. influenzae 1302002H)	Susceptibility category (superscript to MIC) ([7]; H. influenzae H128)	MIC ([7]; H. influenzae 511343) [µg/mL]	MIC ([7]; H. influenzae 1302002H) [µg/mL]	MIC ([7]; H. influenzae H128) [µg/mL]	also measured
S	R	0.25 (≈ 0.692 µM)	32 (≈ 88.6 µM)	C[C@H]1COc2c(N3CCN(C)CC3)c(F)cc3c(=O)c(C(=O)O)cn1c23 [LVX, levofloxacin]			S	S	R	1 (≈ 2.77 µM)	1 (≈ 2.77 µM)	32 (≈ 88.6 µM)	did not demonstrate any reduction in bacterial burden	highly effective	NS	S	S	4 (≈ 11.1 µM)	0.06 (≈ 0.166 µM)	0.016 (≈ 0.0443 µM)	Log10 reductions versus the levels at the baseline ([3]; recreated 500-mg LVX profile once daily, two susceptible H. influenzae isolates): 4.2 log10 CFU/lungs and 4.5 log10 CFU/lungs; Efficacy ([3]; recreated 500-mg LVX profile, nonsusceptible H. influenzae strain): ineffective; AUC0–t Human ([5]; 500 mg single oral dose, 24 h interval): 40 µg·h/mL; Cmax Human ([5]; 500 mg single oral dose): 4300 ng/mL
S	S	2 (≈ 5.93 µM)	1 (≈ 2.96 µM)	CC(=O)NC[C@H]1CN(c2ccc(N3CCOCC3)c(F)c2)C(=O)O1 [LZD, linezolid]	S	4 (≈ 11.9 µM)															AUC0–t Human ([5]; 625 mg oral steady state, 12 h interval): 147 µg·h/mL; AUC from 0 to 12 h postdosing ([5]; LZD 625 mg oral): 147 µg·h/mL; AUC from 0 to 12 h postdosing ([5]; LZD 600-mg approved oral dose): 138 µg·h/mL
R	R	32 (≈ 79.7 µM)	> 64	Cc1onc(-c2ccccc2)c1C(=O)N[C@@H]1C(=O)N2[C@@H]1SC(C)(C)[C@@H]2C(=O)O [Oxacillin]																	

Structure (SMILES)	Susceptibility category (superscript to MIC) ([1]; S. aureus PVL-2)	Susceptibility category (superscript to MIC) ([1]; S. aureus X32601)	MIC ([1]; S. aureus PVL-2) [µg/mL]	MIC ([1]; S. aureus X32601) [µg/mL]	Susceptibility category (superscript to MIC) ([1]; S. aureus A-24)	MIC ([1]; S. aureus A-24) [µg/mL]	Susceptibility category (superscript to MIC) ([2]; S. pneumoniae ERY2)	Susceptibility category (superscript to MIC) ([2]; S. pneumoniae L11259)	Susceptibility category (superscript to MIC) ([2]; S. pneumoniae TPS3)	MIC ([2]; S. pneumoniae ERY2) [µg/mL]	MIC ([2]; S. pneumoniae L11259) [µg/mL]	MIC ([2]; S. pneumoniae TPS3) [µg/mL]	Reduction in bacterial burden compared with controls at baseline ([6]; 96 h)	Effect on bacterial burden [6, 12]	Susceptibility category (superscript to MIC) ([7]; H. influenzae 511343)	Susceptibility category (superscript to MIC) ([7]; H. influenzae 1302002H)	Susceptibility category (superscript to MIC) ([7]; H. influenzae H128)	MIC ([7]; H. influenzae 511343) [µg/mL]	MIC ([7]; H. influenzae 1302002H) [µg/mL]	MIC ([7]; H. influenzae H128) [µg/mL]	also measured
CC[C@H]1OC(=O)[C@H](C)[C@@H](O[C@H]2C[C@@](C)(OC)[C@@H](O)[C@H](C)O2)[C@H](C)[C@@H](O[C@@H]2O[C@H](C)C[C@H](N(C)C)[C@H]2O)[C@](C)(O)C[C@@H](C)CN(C)[C@H](C)[C@@H](O)[C@]1(C)O [AZM, azithromycin]	R	R	> 64	> 64	R	> 64	R	S	R	16 (≈ 21.4 µM)	0.03 (≈ 0.0401 µM)	4 (≈ 5.34 µM)	did not demonstrate any reduction in bacterial burden	highly effective	S	S	S	4 (≈ 5.34 µM)	2 (≈ 2.67 µM)	0.5 (≈ 0.668 µM)	Log10 reductions versus the levels at the baseline ([3]; recreated AZM 1,000-mg loading then 500-mg profile once daily, two of three H. influenzae isolates): 1.2 log10 CFU/lungs and 1.4 log10 CFU/lungs; Efficacy ([3]; recreated AZM 1,000/500-mg profile, H. influenzae isolate with AZM MIC of 4 mg/liter): ineffective; Efficacy [4]: ineffective; AUC0–t Human ([5]; 1,000/500 mg oral steady-state profile, 24 h interval): 4.9 µg·h/mL; Cmax Human ([5]; 1,000/500 mg oral steady-state profile): 500 ng/mL; Effect on bacterial burden ([6]; second AZM-resistant S. pneumoniae isolate, recreated AZM 1,000/500 mg profile, 96 h): no effect
Cc1nc(NNC(=O)[C@H](CC2CCCC2)CN(O)C=O)c(F)c(N2CCN3CCOC[C@@H]3C2)n1 [GSK1322322]			4 (≈ 8.34 µM)	1 (≈ 2.09 µM)		4 (≈ 8.34 µM)				0.5 (≈ 1.04 µM)	2 (≈ 4.17 µM)	0.5 (≈ 1.04 µM)						4 (≈ 8.34 µM)	4 (≈ 8.34 µM)	2 (≈ 4.17 µM)	Blood and plasma concentrations compared [8]: similar; Blood and plasma concentrations compared [9]: similar; Ratio of the total drug epithelial lining fluid AUC to the free drug plasma AUC [10]: 3.5; Kp [11]: 3.3
